Measurements from PubChem BioAssay AID2060327 (Molecular Pharmacology Branch, DTP, NCI, 2025).
Values joined by “and” are separate entries in the source; they are usually repeats but may differ in a detail not shown here. Equal values may be shown once.

Tested on: PC-3 multi-cell spheroids, viability
Assay: Anticancer human tumor PC-3 cell line growth inhibition [IpAb];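 also: spheroids exposed to compounds for 7 days before readout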;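 as to viability, T/C: 100% = DMSO vehicle control wells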
Settings: for viability, T/C: stronger effect = lower value
Description: Combinatorial screen of targeted agents with ipatasertib and abemaciclib in multi-cell type tumor spheroids
A high-throughput screen of multi-cell type tumor spheroids was designed to identify active combinations of targeted small molecules and ipatasertib or abemaciclib. Complex spheroids include a stromal component modeled by human endothelial cells (HUVEC) and fibroblasts modeled by human mesenchymal stem cells (MSCs). The concentration ranges selected for each drug and investigational agent were based upon clinically achievable concentrations if the clinical Cmax of the agent was known.
Compounds. The drugs and investigational agents: ipatasertib (NSC767898), abemaciclib(NSC768073), selumetinib (NSC741078), trametinib (758246), adavosertib (NSC754352), everolimus (NSC733504), sapanisertib (NSC764658), vemurafenib (NSC761431), venetoclax (NSC766270), copanlisib (NSC809693), apelisib (NSC765974), palbociblib (NSC758247), vemurafenib (NSC761431), dabrafenib (NSC764134), ravoxertinib (NSC781343), BMS-387032 (NSC767048), sotorasib (NSC818433), talazoparib (NSC767125) and afursertib (NSC778305), were obtained from the National Cancer Institute (NCI) Developmental Therapeutics Program Chemical Repository. The FDA-approved anticancer drug set is available from the NCI Developmental Therapeutics Program. […] The stock solutions were prepared in dimethyl sulfoxide (DMSO, Sigma-Aldrich, St. Louis, MO, cat. D2650) at 800-fold the tested concentration and stored at -70 degrees C prior to their use. All drugs and investigational agents were tested over a range starting from a high concentration at or near the clinical Cmax and decreasing in half-log increments. If the clinical Cmax for an agent had not been determined, the highest concentration tested was 10 microM.
NCI60 Cell Culture. NCI60 cell lines were obtained from the NCI Developmental Therapeutics Program Tumor Repository. For each lot of cells, the Repository performed Applied Biosystems AmpFLSTR Identifiler testing with PCR amplification to confirm consistency with the published Identifier STR profile for each cell line. Cells were kept in continuous culture for no more than 20 passages. The optimal seeding densities for each of the cell lines at each time point assessed were determined prior to performing the concentration response studies. Briefly, the NCI60 human tumor lines were grown as monolayers in RPMI 1640 medium supplemented with 10% FBS and 2 mmol/L L-glutamine.
An additional 9 lines were from the NCI60 cell line panel including MDA-MB-231 breast carcinoma, MDA-MB-468 breast carcinoma, MCF7 breast carcinoma, Hs578T breast carcinoma, MALME-3M melanoma, SK-MEL-2 melanoma, SK-OV-3 ovarian carcinoma, DU-145 prostate carcinoma, PC-3 prostate carcinoma, all cell lines along with major genetic alterations are listed on Table 2. Pooled donor human umbilical vein endothelial cells (HUVEC, Lonza, cat. CC-2519) and human mesenchymal stem cells (hMSC, Lonza, cat. PT-2501) were purchased from Lonza (Walkersville, MD).
PDMR cell lines were grown in complete medium (DC medium): Dulbecco's modified Eagle's medium (DMEM)/F12 supplemented with 5% fetal bovine serum (FBS), 2 mM L-glutamine, 100 U/mL penicillin and 100 µg/ml streptomycin, 0.4 µg/ml hydrocortisone, 10 ng/ml epidermal growth factor (EGF) recombinant human protein, 24 µg/mL adenine, and 0.1 mg/mL primocin. During culture from frozen stock vials, PDMR cells were cultured in the same medium containing 10 µM Y-27632 (see Table 3). The PDCs were cultured in complete DMEM/F12 media without 10 microM Y-27632 dihydrochloride for at least two passages prior to the screen. The pooled donor HUVEC and hMSC were cultured in endothelial cell growth medium 2 (PromoCell, Heidelberg, Germany, cat. C-22011) and mesenchymal stem cell growth medium 2 (PromoCell, cat. C-28009), respectively. For all experiments, HUVEC and hMSC were used at passages </=5.
[…]

[1] = curve of first compound, second compound 0.1 µM
[2] = curve of first compound, second compound 0.316 µM
[3] = curve of first compound, second compound 1 µM
[4] = curve of first compound, second compound 3.16 µM
[5] = curve of first compound, second compound 10 µM
[6] = second compound 0.1 µM, first compound 0.0316 µM
[7] = second compound 0.1 µM, first compound 0.1 µM
[8] = second compound 0.1 µM, first compound 0.316 µM
[9] = second compound 0.1 µM, first compound 1 µM
[10] = second compound 0.316 µM, first compound 0.0316 µM
[11] = second compound 0.316 µM, first compound 0.1 µM
[12] = second compound 0.316 µM, first compound 0.316 µM
[13] = second compound 0.316 µM, first compound 1 µM
[14] = second compound 1 µM, first compound 0.0316 µM
[15] = second compound 1 µM, first compound 0.1 µM
[16] = second compound 1 µM, first compound 0.316 µM
[17] = second compound 1 µM, first compound 1 µM
[18] = second compound 3.16 µM, first compound 0.0316 µM
[19] = second compound 3.16 µM, first compound 0.1 µM
[20] = second compound 3.16 µM, first compound 0.316 µM
[21] = second compound 3.16 µM, first compound 1 µM
[22] = second compound 10 µM, first compound 0.0316 µM
[23] = second compound 10 µM, first compound 0.1 µM
[24] = second compound 10 µM, first compound 0.316 µM
[25] = second compound 10 µM, first compound 1 µM

## COc1c(OCCCN2CCOCC2)ccc2c3n(c(=NC(=O)c4cnc(N)nc4)nc12)CCN3 + CC(C)NCC(C(=O)N1CCN(c2ncnc3c2C(C)CC3O)CC1)c1ccc(Cl)cc1
[1]
  IC50: 21.4 nM
[2]
  IC50: < 3.16 nM
[3]
  IC50: < 3.16 nM
[4]
  IC50: < 3.16 nM
[5]
  IC50: < 3.16 nM
Second compound 0.1 µM, first compound 0.00316 µM
  viability, T/C: 81.5%
Second compound 0.1 µM, first compound 0.01 µM
  viability, T/C: 59.7%
[6]
  viability, T/C: 48.1%
[7]
  viability, T/C: 18%
[8]
  viability, T/C: 6.89%
[9]
  viability, T/C: 4.7%
Second compound 0.316 µM, first compound 0.00316 µM
  viability, T/C: 45.1%
Second compound 0.316 µM, first compound 0.01 µM
  viability, T/C: 40%
[10]
  viability, T/C: 29.5%
[11]
  viability, T/C: 12.2%
[12]
  viability, T/C: 5.71%
[13]
  viability, T/C: 4.51%
Second compound 1 µM, first compound 0.00316 µM
  viability, T/C: 24.3%
Second compound 1 µM, first compound 0.01 µM
  viability, T/C: 18.7%
[14]
  viability, T/C: 14%
[15]
  viability, T/C: 8.53%
[16]
  viability, T/C: 5.57%
[17]
  viability, T/C: 4.27%
Second compound 3.16 µM, first compound 0.00316 µM
  viability, T/C: 15.1%
Second compound 3.16 µM, first compound 0.01 µM
  viability, T/C: 12.5%
[18]
  viability, T/C: 11.1%
[19]
  viability, T/C: 7.88%
[20]
  viability, T/C: 4.58%
[21]
  viability, T/C: 3.91%
Second compound 10 µM, first compound 0.00316 µM
  viability, T/C: 12.8%
Second compound 10 µM, first compound 0.01 µM
  viability, T/C: 11.5%
[22]
  viability, T/C: 10.3%
[23]
  viability, T/C: 6.13%
[24]
  viability, T/C: 4.33%
[25]
  viability, T/C: 4.03%

## CC(=O)c1c(C)c2cnc(Nc3ccc(N4CCNCC4)cn3)nc2n(C2CCCC2)c1=O + CCN1CCN(Cc2ccc(Nc3ncc(F)c(-c4cc(F)c5nc(C)n(C(C)C)c5c4)n3)nc2)CC1
Curve of first compound, second compound 0.01 µM
  IC50: > 300 nM
Curve of first compound, second compound 0.0316 µM
  IC50: > 300 nM
[1]
  IC50: > 300 nM
[2]
  IC50: > 300 nM
[3]
  IC50: > 300 nM
Second compound 0.01 µM, first compound 0.000949 µM
  viability, T/C: 79.2%
Second compound 0.01 µM, first compound 0.003 µM
  viability, T/C: 68.6%
Second compound 0.01 µM, first compound 0.00949 µM
  viability, T/C: 70.7%
Second compound 0.01 µM, first compound 0.03 µM
  viability, T/C: 61.7%
Second compound 0.01 µM, first compound 0.0949 µM
  viability, T/C: 62%
Second compound 0.01 µM, first compound 0.3 µM
  viability, T/C: 56.6%
Second compound 0.0316 µM, first compound 0.000949 µM
  viability, T/C: 49.9%
Second compound 0.0316 µM, first compound 0.003 µM
  viability, T/C: 57.3%
Second compound 0.0316 µM, first compound 0.00949 µM
  viability, T/C: 53.7%
Second compound 0.0316 µM, first compound 0.03 µM
  viability, T/C: 53.7%
Second compound 0.0316 µM, first compound 0.0949 µM
  viability, T/C: 56.4%
Second compound 0.0316 µM, first compound 0.3 µM
  viability, T/C: 59.8%
Second compound 0.1 µM, first compound 0.000949 µM
  viability, T/C: 53.5%
Second compound 0.1 µM, first compound 0.003 µM
  viability, T/C: 53.9%
Second compound 0.1 µM, first compound 0.00949 µM
  viability, T/C: 52.9%
Second compound 0.1 µM, first compound 0.03 µM
  viability, T/C: 53.7%
Second compound 0.1 µM, first compound 0.0949 µM
  viability, T/C: 57.9%
Second compound 0.1 µM, first compound 0.3 µM
  viability, T/C: 55.4%
Second compound 0.316 µM, first compound 0.000949 µM
  viability, T/C: 60%
Second compound 0.316 µM, first compound 0.003 µM
  viability, T/C: 56.8%
Second compound 0.316 µM, first compound 0.00949 µM
  viability, T/C: 63.1%
Second compound 0.316 µM, first compound 0.03 µM
  viability, T/C: 64.9%
Second compound 0.316 µM, first compound 0.0949 µM
  viability, T/C: 65.5%
Second compound 0.316 µM, first compound 0.3 µM
  viability, T/C: 60.9%
Second compound 1 µM, first compound 0.000949 µM
  viability, T/C: 58.1%
Second compound 1 µM, first compound 0.003 µM
  viability, T/C: 60.2%
Second compound 1 µM, first compound 0.00949 µM
  viability, T/C: 57.3%
Second compound 1 µM, first compound 0.03 µM
  viability, T/C: 57.5%
Second compound 1 µM, first compound 0.0949 µM
  viability, T/C: 51.2%
Second compound 1 µM, first compound 0.3 µM
  viability, T/C: 55.1%

## CC1(C)CCC(CN2CCN(c3ccc(C(=O)NS(=O)(=O)c4ccc(NCC5CCOCC5)c([N+](=O)[O-])c4)c(Oc4cnc5[nH]ccc5c4)c3)CC2)=C(c2ccc(Cl)cc2)C1
Compound 0.0316 µM
  viability, T/C: 105% and 102%
Compound 0.1 µM
  viability, T/C: 107% and 108%
Compound 0.316 µM
  viability, T/C: 105% and 112%
Compound 1 µM
  viability, T/C: 107% and 108%
Compound 3.16 µM
  viability, T/C: 85.4% and 109%
Compound 10 µM
  viability, T/C: 3.66% and 4.01%
Curve of compound
  IC50: 5210 nM and 6000 nM

## Cc1nc(NC(=O)N2CCCC2C(N)=O)sc1-c1ccnc(C(C)(C)C(F)(F)F)c1 (configuration not stated) + CC(C)NCC(C(=O)N1CCN(c2ncnc3c2C(C)CC3O)CC1)c1ccc(Cl)cc1
[1]
  IC50: 955 nM
[2]
  IC50: < 31.6 nM
[3]
  IC50: < 31.6 nM
[4]
  IC50: < 31.6 nM
[5]
  IC50: < 31.6 nM
[6]
  viability, T/C: 60.7%
[7]
  viability, T/C: 51.8%
[8]
  viability, T/C: 47.8%
[9]
  viability, T/C: 49.5%
Second compound 0.1 µM, first compound 3.16 µM
  viability, T/C: 41.8%
Second compound 0.1 µM, first compound 10 µM
  viability, T/C: 10.6%
[10]
  viability, T/C: 43.7%
[11]
  viability, T/C: 44.4%
[12]
  viability, T/C: 39.2%
[13]
  viability, T/C: 30.2%
Second compound 0.316 µM, first compound 3.16 µM
  viability, T/C: 24.6%
Second compound 0.316 µM, first compound 10 µM
  viability, T/C: 9.66%
[14]
  viability, T/C: 26.5%
[15]
  viability, T/C: 24.1%
[16]
  viability, T/C: 17.8%
[17]
  viability, T/C: 15.8%
Second compound 1 µM, first compound 3.16 µM
  viability, T/C: 12.5%
Second compound 1 µM, first compound 10 µM
  viability, T/C: 5.72%
[18]
  viability, T/C: 14.2%
[19]
  viability, T/C: 14.7%
[20]
  viability, T/C: 11.8%
[21]
  viability, T/C: 11.4%
Second compound 3.16 µM, first compound 3.16 µM
  viability, T/C: 8.54%
Second compound 3.16 µM, first compound 10 µM
  viability, T/C: 3.24%
[22]
  viability, T/C: 13.4%
[23]
  viability, T/C: 12.8%
[24]
  viability, T/C: 10.5%
[25]
  viability, T/C: 9.02%
Second compound 10 µM, first compound 3.16 µM
  viability, T/C: 7.87%
Second compound 10 µM, first compound 10 µM
  viability, T/C: 2.4%
